Laboratory results as given in paper PMC6315005, “5F-Cumyl-PINACA in ‘e-liquids’ for electronic cigarettes: comprehensive characterization of a new type of synthetic cannabinoid in a trendy product including investigations on the in vitro and in vivo phase I metabolism of 5F-Cumyl-PINACA and its non-fluorinated analog Cumyl-PINACA” (Forensic Toxicology, 2018).
“Also recorded” adds a separate entry of the source.

How the values were obtained:
CB1 receptors = test system: CB1 receptors; parameters: method as in PMID 28792725; settings: mouse AtT-20 neuroblastoma cells, membrane potential; cited from earlier work
CB2 receptors = test system: CB2 receptors; parameters: method as in PMID 28792725; settings: mouse AtT-20 neuroblastoma cells, membrane potential; cited from earlier work
CB1 receptor = test system: CB1 receptor; parameters: method as in PMID 29367862; settings: [35S]GTPγS binding; cited from earlier work
CB2 receptor = test system: CB2 receptor; parameters: method as in PMID 29367862; settings: [35S]GTPγS binding; cited from earlier work
CB1 = molecular target: T1, CB1 (Homo sapiens, UniProt P21554); assay: cAMP biosensor assay with CB1 as target (DiscoveRx); type: cell-based
T1 construct: purchased DiscoveRx (Fremont, CA, USA)
T1 sequence (P21554 whole entry): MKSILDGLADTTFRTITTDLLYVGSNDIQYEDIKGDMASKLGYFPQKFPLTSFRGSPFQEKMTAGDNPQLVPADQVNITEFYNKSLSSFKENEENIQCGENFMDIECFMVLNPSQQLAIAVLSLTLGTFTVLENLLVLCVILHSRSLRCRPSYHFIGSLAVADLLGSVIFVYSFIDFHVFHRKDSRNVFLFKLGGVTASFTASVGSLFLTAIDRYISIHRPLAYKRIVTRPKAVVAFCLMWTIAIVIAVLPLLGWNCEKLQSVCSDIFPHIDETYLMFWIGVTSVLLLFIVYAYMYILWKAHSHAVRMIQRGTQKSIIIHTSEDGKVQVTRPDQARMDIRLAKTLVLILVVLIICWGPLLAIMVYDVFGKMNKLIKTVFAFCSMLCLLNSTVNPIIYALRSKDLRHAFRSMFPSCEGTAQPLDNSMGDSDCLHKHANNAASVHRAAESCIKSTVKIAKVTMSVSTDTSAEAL
Procedure: Each compound was tested in duplicates; to induce response, 20 µM forskolin was used.

[1] = Self-administration study, phase I metabolites of Cumyl-PINACA in urine (LC-MS/MS); type: in vivo, human; settings: for peak area in urine: normalized to creatinine 100 mg/dL
[2] = Self-administration study, serum concentrations of Cumyl-PINACA (LC-MS/MS); type: in vivo, human; settings: 0.6 mg oral, one volunteer
Excerpt: For analysis of the serum samples, a routinely used LC–MS/MS screening method, currently covering 94 compounds with at least two ion transitions for each analyte and one ion transition for each internal standard in positive scheduled multiple reaction monitoring (+sMRM) was applied. Briefly, a QTRAP™ 4000 triple quadrupole linear ion trap instrument (Sciex, Darmstadt, Germany) equipped with a TurbolonSpray® interface and coupled to a Shimadzu Prominence HPLC system consisting of two LC-20 AD SP isocratic pumps, SIL 20 AC autosampler, CTO-20A controller (Shimadzu, Duisburg, Germany) and Analyst® software version 1.6.2 were used (Sciex). […] The total flow rate was 0.5 mL/min. The autosampler and the column oven temperatures were set to 10 and 40 °C, respectively. The monitored ion transitions used for Cumyl-PINACA were m/z 350→215 and 350→232.
(§1) To investigate the in vivo phase I metabolism of Cumyl-PINACA, one of the authors (75 kg person) ingested 0.6 mg Cumyl-PINACA orally. In addition to blank samples taken prior to ingestion, serum and urine samples were collected repeatedly over periods of 17 and 31 h after ingestion, respectively. All samples were stored at − 20 °C until analysis. In Germany, approval by an ethics committee is not required for scientific self-experiments.
A 1-mL aliquot of a serum sample was spiked with 10 µL of an internal standard solution mixture (25 ng/mL each, ADBICA-d9, AKB48-d9, JWH-007-d9, JWH-015-d7, JWH-018-d11, JWH-073-d9, JWH-081-d9, JWH-122-d9, JWH-200-d5, JWH-210-d9, JWH-250-d5, JWH-398-d9, MAM-2201-d5, PB-22-d9, RCS-4-d9, UR-144-d5, XLR-11-d5). A 0.5-mL volume carbonate buffer (pH 10) and 1.5 mL of extraction mixture 1 (n-hexane/ ethyl acetate, 99:1, v/v) were added. After gentle mixing for 5 min, the sample was centrifuged and 1 mL of the supernatant was transferred to an HPLC vial. Subsequently, 1.5 mL of extraction mixture 2 (n-hexane/ethyl acetate, 80:20, v/v) was added to the residue, and the mixing and centrifugation steps were repeated. A 1-mL volume of the supernatant was added to the same HPLC vial, and after evaporation under a gentle stream of nitrogen at 40 °C and reconstitution in 100 µL of mobile phase (A/B, 80:20, v/v), the sample was analyzed using LC–MS/MS.

[3] = Authentic urine sample, phase I metabolites of 5F-Cumyl-PINACA (LC-MS/MS); type: in vivo, human; settings: for Urine [Peak area]: 5F-Cumyl-PINACA consumption
Procedure: (§2) The LC–MS/MS system used for the analysis of the urine and the pHLM assay samples consisted of a Nexera X2 UHPLC (Shimadzu) coupled to a QTRAP™ 5500 triple quadrupole linear ion trap instrument (SCIEX) equipped with the TurboIonSpray® probe. […] The total flow rate was 0.4 mL/min. The autosampler and the column oven temperatures were set to 10 and 40 °C, respectively.
(§3) The MRM ion transitions of the parent compounds were optimized carefully in positive ionization mode (see Supplementary Tables S1 and S2). Enhanced product ion (EPI) scan experiments were performed using hypothetical masses of anticipated phase I metabolites, and the obtained spectra were compared to the EPI spectrum of the respective parent compound. In order to detect unexpected metabolites not covered by the EPI scan approach, precursor ion scan experiments for the characteristic fragment ion at m/z 145 and for the m/z of its modified analogs 161 (monohydroxylation), 177 (dihydroxylation) and 179 (dihydrodiol) were conducted. The relative abundances of the characterized metabolites in the urine samples obtained during the self-administration study were compared using an MRM method comprising the most abundant ion transitions of each metabolite (see Supplementary Fig. S1 and Table S3).
The analysis of in vivo metabolism of 5F-Cumyl-PINACA in an authentic urine sample was conducted in accordance with the client’s inquest.
(§4) In order to cleave conjugates, 0.5 mL of an urine sample was incubated at 45 °C for 1 h after addition of 0.5 mL phosphate buffer (pH 6) and 30 µL β-glucuronidase. In a next step, 1.5 mL acetonitrile and 0.5 mL ammonium formate ([…]) were added. After shaking and centrifugation, 1 mL of the acetonitrile phase was transferred into a glass vial and evaporated to dryness under a gentle nitrogen stream at 40 °C. The residue was reconstituted in 200 µL mobile phase A/B (50:50, v/v) directly before LC–MS/MS analysis. Blank urine samples were prepared serving as negative controls.

[4] = test system: pooled human liver microsomes (pHLM); assay: Pooled human liver microsome assay (phase I metabolism); type: in vitro ADME; settings: 60 min, 37 °C
Procedure: as §2, §3
To investigate the tentative phase I metabolism of Cumyl-PINACA and 5F-Cumyl-PINACA (extracted from e-liquids), in vitro experiments with pHLM were performed in triplicates. A 0.5-µL volume of a substrate solution ([…] in acetonitrile) was added to 49.5 µL of a reaction mixture consisting of 2.5 µL pHLM, 2.5 µL NADPH regenerating solution A, 0.5 µL NADPH regenerating solution B, 5.0 µL SOD, 10 µL 0.5 M phosphate buffer, and 29 µL deionized water. Incubation was performed for 60 min at 37 °C. The reaction was terminated by the addition of ice-cold acetonitrile, and the supernatant was analyzed after 1:10 dilution with mobile phase A/B (50:50, v/v). Blank pHLM samples were processed in the same way serving as negative controls.

[5] = Self-administration study, phase I metabolites of Cumyl-PINACA in urine (LC-MS/MS); type: in vivo, human; settings: for peak area in urine: normalized to creatinine 100 mg/dL; remark: listed apart in the source
Procedure: as §2, §3, §1, §4

[6] = pHLM incubation of 5F-Cumyl-PINACA
[7] = 6 h after 0.6 mg Cumyl-PINACA oral
[8] = 16 h after 0.6 mg Cumyl-PINACA oral
[9] = 20.3 h after 0.6 mg Cumyl-PINACA oral
[10] = 22.3 h after 0.6 mg Cumyl-PINACA oral
[11] = 26.3 h after 0.6 mg Cumyl-PINACA oral
[12] = 29.3 h after 0.6 mg Cumyl-PINACA oral
[13] = pHLM incubation of Cumyl-PINACA
[14] = 37.2 h after 0.6 mg Cumyl-PINACA oral

CC(C)(NC(=O)c1cn(CCCCCF)c2ccccc12)c1ccccc1 [5F-Cumyl-PICA, reference compound]
potency of CB1 receptor activation compared to CP-55,940 (CB1 receptors): greater potency than CP-55,940 | potency of CB2 receptor activation compared to CP-55,940 (CB2 receptors): greater potency than CP-55,940 | CB1 activity compared to CP-55,940 (CB1 receptor): less activities as compared to CP-55,940 | CB2 activity compared to CP-55,940 (CB2 receptor): less activities as compared to CP-55,940

CCCCCn1nc(C(=O)NC(C)(C)c2ccccc2)c2ccccc21 [Cumyl-PINACA, 1-pentyl-N-(2-phenylpropan-2-yl)-1H-indazole-3-carboxamide]
potency of CB1 receptor activation compared to CP-55,940 (CB1 receptors): greater potency than CP-55,940 | potency of CB2 receptor activation compared to CP-55,940 (CB2 receptors): greater potency than CP-55,940 | CB1 activity compared to CP-55,940 (CB1 receptor): less activities as compared to CP-55,940 | CB2 activity compared to CP-55,940 (CB2 receptor): less activities as compared to CP-55,940 | EC50 (CB1): 0.06 nM | relative potency among the tested substances (CB1): most potent SC among the tested compounds; also recorded: most potent substance in this assay | Curve top (CB1; agonist format, 20 µM forskolin): 93.7 | Emax (CB1; control ligand CP-55,940, read-out: Maximum response (compared to CP-55,940)): 92.9% | detection of parent compound in urine ([1]; 0.6 mg Cumyl-PINACA oral): not detected in urine | drug-related symptoms [2]: did not experience any drug-related symptoms | maximum concentration measured in serum [2]: 0.1 ng/mL | period of detection in serum [2]: about 17 h | Tmax ([2]; human, serum, read-out: time of maximum serum concentration after ingestion): 6 h

CC(C)(NC(=O)c1nn(CCCCCF)c2ccccc12)c1ccccc1 [5F-Cumyl-PINACA, 1-(5-fluoropentyl)-N-(2-phenylpropan-2-yl)-1H-indazole-3-carboxamide]
detection of parent compound in urine [3]: not detected | potency of CB1 receptor activation compared to CP-55,940 (CB1 receptors): greater potency than CP-55,940 | potency of CB2 receptor activation compared to CP-55,940 (CB2 receptors): greater potency than CP-55,940 | CB1 activity compared to CP-55,940 (CB1 receptor): less activities as compared to CP-55,940 | CB2 activity compared to CP-55,940 (CB2 receptor): less activities as compared to CP-55,940

CC(C)(NC(=O)c1nn(CCCCCF)c2c1=CC(O)C(O)C=2)c1ccccc1 (centres unmarked) [B01]
Urine [Peak area] [3]: 5.6E+04 | pHLM [Peak area] [4, 6]: 7.0E+06

CCCCCn1cc(C(=O)NC(C)(C)c2ccccc2)c2ccccc21 [Cumyl-PICA, reference compound]
potency of CB1 receptor activation compared to CP-55,940 (CB1 receptors): greater potency than CP-55,940 | potency of CB2 receptor activation compared to CP-55,940 (CB2 receptors): greater potency than CP-55,940 | CB1 activity compared to CP-55,940 (CB1 receptor): less activities as compared to CP-55,940 | CB2 activity compared to CP-55,940 (CB2 receptor): less activities as compared to CP-55,940

CC(C)(NC(=O)c1nn(CCCCCO)c2ccccc12)c1ccccc1 [A08]
abundance in authentic urine sample [3]: high abundance | Urine [Peak area] [3]: 2.2E+05 | detectable in urine after self-administration ([5]; 0.6 mg Cumyl-PINACA oral): over 8 days | relative abundance in urine samples ([5]; 0.6 mg Cumyl-PINACA oral): most abundant metabolite in all analyzed urine samples | peak area in urine [5, 7]: 1.7E+07 | peak area in urine [5, 8]: 4.1E+06 | peak area in urine [5, 9]: 1.4E+06 | peak area in urine [5, 10]: 1.5E+06 | peak area in urine [5, 11]: 7.7E+05 | peak area in urine [5, 12]: 5.7E+05 | pHLM [Peak area] [4, 6]: 6.0E+07 | pHLM [Peak area] [4, 13]: 7.3E+07 | peak area in urine ([1]; 3.2 h after 0.6 mg Cumyl-PINACA oral): 1.1E+06 | peak area in urine [1, 14]: 4.5E+05 | peak area in urine ([1]; 39 h after 0.6 mg Cumyl-PINACA oral): 2.9E+05 | peak area in urine ([1]; 88.5 h after 0.6 mg Cumyl-PINACA oral): 2.6E+04 | peak area in urine ([1]; 110.3 h after 0.6 mg Cumyl-PINACA oral): 6.1E+04 | peak area in urine ([1]; 134 h after 0.6 mg Cumyl-PINACA oral): 2.7E+04 | peak area in urine ([1]; 157.5 h after 0.6 mg Cumyl-PINACA oral): 1.5E+04 | peak area in urine ([1]; 182.5 h after 0.6 mg Cumyl-PINACA oral): 1.3E+04 | peak area in urine ([1]; 205.5 h after 0.6 mg Cumyl-PINACA oral): 1.1E+04

CC(C)(NC(=O)c1nn(CCCCC(=O)O)c2ccccc12)c1ccccc1 [A07]
Urine [Peak area] [3]: 1.8E+05 | peak area in urine [5, 7]: 8.4E+04 | peak area in urine [5, 8]: 1.1E+05 | peak area in urine [5, 9]: 5.2E+04 | peak area in urine [5, 10]: 6.0E+04 | peak area in urine [5, 11]: 4.2E+04 | peak area in urine [5, 12]: 2.1E+04 | pHLM [Peak area] [4, 6]: 9.3E+06 | pHLM [Peak area] [4, 13]: 2.9E+06 | peak area in urine [1, 14]: 1.7E+04
